Like-named read-outs stand apart in the source and are kept apart here.
Experiments:
[1] = tested on: prostate cancer 22Rv1 cells; assay: Cell proliferation inhibition activity assay (CCK-8 method), 22Rv1; format: cell-based
DYRK2 kinase = target: T1, DYRK2 kinase (Homo sapiens, UniProt Q92630); assay: DYRK2 kinase activity analysis assay (33P-ATP, DYRKtide substrate, P81 filter paper); format: biochemical; details: 2 hours at room temperature
T1 sequence (Q92630 1-601): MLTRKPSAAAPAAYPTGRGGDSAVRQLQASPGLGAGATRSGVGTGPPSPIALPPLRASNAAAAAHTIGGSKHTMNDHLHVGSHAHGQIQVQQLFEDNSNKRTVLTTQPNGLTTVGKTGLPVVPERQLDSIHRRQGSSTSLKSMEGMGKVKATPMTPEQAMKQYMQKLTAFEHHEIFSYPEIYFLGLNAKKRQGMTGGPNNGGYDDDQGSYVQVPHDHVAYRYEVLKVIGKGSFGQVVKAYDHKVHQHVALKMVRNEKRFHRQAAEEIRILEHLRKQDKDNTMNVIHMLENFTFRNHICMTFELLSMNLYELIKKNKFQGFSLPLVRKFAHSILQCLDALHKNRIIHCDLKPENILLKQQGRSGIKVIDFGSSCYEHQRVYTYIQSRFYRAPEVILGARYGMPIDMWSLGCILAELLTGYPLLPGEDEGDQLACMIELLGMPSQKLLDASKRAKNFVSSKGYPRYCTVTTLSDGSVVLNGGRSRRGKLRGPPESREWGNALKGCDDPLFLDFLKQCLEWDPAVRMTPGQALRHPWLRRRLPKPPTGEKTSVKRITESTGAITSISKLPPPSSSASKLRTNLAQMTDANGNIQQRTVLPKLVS

[2] = tested on: prostate cancer DU145 cells; assay: Cell proliferation inhibition activity assay (CCK-8 method), DU145; format: cell-based
ICR mice = assay: Acute toxicity test, single gavage, 14 days observation; format: in vivo
[3] = tested on: human prostate cancer cell DU145 xenografts in nude mice; assay: In vivo efficacy assay against prostate cancer (DU145 xenograft); set-up: species or system BALB/c nude mice; details: Example 20 study, 21 days; for T/C(%) / tumor inhibition rate: DU145 xenograft; for body weight of nude mice during dosing: each group, once a day

Cl.O=C(c1ccc(Nc2ncc(F)c(-c3ccc4scnc4c3)n2)nc1)N1CCNCC1 [Example 20, (6-((4-(benzothiazole-5-yl)-5-fluoropyrimidine-2-yl)amino)pyridine-3-yl)(piperazine-1-yl)ketone hydrochloride]
IC50 ([1]; Homo sapiens, 22Rv1 cells, 72 hours, CCK8): 2.55 ± 0.046 µM | inhibition of proliferation of prostate cancer 22Rv1 cell ([1]; result in words): significantly inhibit | IC50 (DYRK2 kinase; read-out: IC50): 0.6 nM | IC50 ([2]; Homo sapiens, DU-145, DU145 cells, 72 hours, CCK8): 3.25 ± 0.06 µM | inhibition of proliferation of prostate cancer DU145 cell ([2]; result in words): significantly inhibit | death of animals after day 14 of dosing (ICR mice; gavage once, 1000, 2500, 5000 and 10000 mg/kg, day 14): no animals died | weight of main organs (heart, liver, spleen, lung, kidney) versus control group (ICR mice; gavage once, 1000, 2500, 5000 and 10000 mg/kg, dissection after 14 days): no difference in the weight of main organs | abnormality after dosing (ICR mice; gavage once, 1000, 2500, 5000 and 10000 mg/kg, within 12 hours after dosing): no abnormality was observed | death of animals within 24 hours of dosing (ICR mice; gavage once, 1000, 2500, 5000 and 10000 mg/kg, within 24 hours): No animals died | toxic or side effects (overall conclusion) (ICR mice; gavage once, up to 10000 mg/kg): no obvious toxic or side effects | T/C(%) ([3]; 100 mg/kg once a day): 50.9% | tumor inhibition rate ([3]; 100 mg/kg once a day): 48.7% | body weight of nude mice during dosing [3]: no significant decrease in body weight | T/C(%) ([3]; high dose 200 mg/kg once a day): 34.4% | tumor inhibition rate ([3]; high dose 200 mg/kg once a day): 65.3%

CN(C)c1nc2ccc(-c3nc(Nc4ccc(C(=O)N5CCN(C(=O)C6CC6)CC5)cn4)ncc3F)cc2s1 [Example 36]
IC50 (DYRK2 kinase; IC50 (nM)): 16 nM

CN(C)c1nc2ccc(-c3nc(Nc4ccc(C(=O)N5CCN(c6ccccc6)CC5)cn4)ncc3F)cc2s1 [Example 37, (6-((4-(2-(dimethylamino)benzothiazole-6-yl)-5-fluoropyrimidine-2-yl)amino)pyridine-3-yl)(4 - arylpiperazine-1-yl)ketone]
IC50 (DYRK2 kinase; IC50 (nM)): 683 nM

CCOC(=O)N1CCN(C(=O)c2ccc(Nc3ncc(F)c(-c4ccc5nc(N(C)C)sc5c4)n3)nc2)CC1 [Example 38, ethyl 4-(6-((4-(2-(dimethylamino)benzothiazole-6-yl)-5-fluoropyrimidine-2-yl)amino)nicotinoyl)piperazine-1-carboxylate]
IC50 (DYRK2 kinase; read-out: IC50): 91 nM

CNC(=O)c1ccc(N2C(=S)N(c3ccc(C#N)c(C(F)(F)F)c3)C(=O)C2(C)C)cc1F [enzalutamide, reference compound]
T/C(%) ([3]; 100 mg/kg once a day): 42.0% | tumor inhibition rate ([3]; 100 mg/kg once a day): 57.8% | body weight of nude mice during dosing [3]: no significant decrease in body weight

Source: patent EP4631941A1 (Jiangsu Tasly Diyi Pharmaceutical Co., Ltd., priority 2022, dated 2024)
